Our source for the IC50, EC50 and AC50 values is ChEMBL document CHEMBL1201862, “PubChem BioAssay data set” (2004).

The target of assay [1] is T1, Ubiquitin-conjugating enzyme E2 N (Homo sapiens, UniProt P61088).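 Further: Dose-response confirmation in a TR-FRET assay detecting UBC13-driven polyubiquitin chain formation, inhibition measured.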
T1 sequence (P61088 whole entry): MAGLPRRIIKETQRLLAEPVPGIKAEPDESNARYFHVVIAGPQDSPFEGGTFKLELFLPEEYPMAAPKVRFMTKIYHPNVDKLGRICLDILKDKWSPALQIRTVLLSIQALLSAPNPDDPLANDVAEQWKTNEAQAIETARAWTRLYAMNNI
The assay is classed as functional.

For assay [2], the system named is HEK293. Nature of the assay: NOD2 signaling inhibitors in MDP-stimulated cells, cell-based, uHTS, luminescence (AID 2001). It is filed as functional. The settings on record: Homo sapiens.
Assay [3] deals with HEK293. Nature of the assay: cells. Conditions: Homo sapiens.
Assay [4] deals with Nucleotide-binding oligomerization domain-containing protein 2 (Homo sapiens, UniProt Q9HC29). Nature of the assay: PubChem AID 2334. It is filed as functional.
Chain of Nucleotide-binding oligomerization domain-containing protein 2 (Q9HC29 whole entry, the tested form may be a part): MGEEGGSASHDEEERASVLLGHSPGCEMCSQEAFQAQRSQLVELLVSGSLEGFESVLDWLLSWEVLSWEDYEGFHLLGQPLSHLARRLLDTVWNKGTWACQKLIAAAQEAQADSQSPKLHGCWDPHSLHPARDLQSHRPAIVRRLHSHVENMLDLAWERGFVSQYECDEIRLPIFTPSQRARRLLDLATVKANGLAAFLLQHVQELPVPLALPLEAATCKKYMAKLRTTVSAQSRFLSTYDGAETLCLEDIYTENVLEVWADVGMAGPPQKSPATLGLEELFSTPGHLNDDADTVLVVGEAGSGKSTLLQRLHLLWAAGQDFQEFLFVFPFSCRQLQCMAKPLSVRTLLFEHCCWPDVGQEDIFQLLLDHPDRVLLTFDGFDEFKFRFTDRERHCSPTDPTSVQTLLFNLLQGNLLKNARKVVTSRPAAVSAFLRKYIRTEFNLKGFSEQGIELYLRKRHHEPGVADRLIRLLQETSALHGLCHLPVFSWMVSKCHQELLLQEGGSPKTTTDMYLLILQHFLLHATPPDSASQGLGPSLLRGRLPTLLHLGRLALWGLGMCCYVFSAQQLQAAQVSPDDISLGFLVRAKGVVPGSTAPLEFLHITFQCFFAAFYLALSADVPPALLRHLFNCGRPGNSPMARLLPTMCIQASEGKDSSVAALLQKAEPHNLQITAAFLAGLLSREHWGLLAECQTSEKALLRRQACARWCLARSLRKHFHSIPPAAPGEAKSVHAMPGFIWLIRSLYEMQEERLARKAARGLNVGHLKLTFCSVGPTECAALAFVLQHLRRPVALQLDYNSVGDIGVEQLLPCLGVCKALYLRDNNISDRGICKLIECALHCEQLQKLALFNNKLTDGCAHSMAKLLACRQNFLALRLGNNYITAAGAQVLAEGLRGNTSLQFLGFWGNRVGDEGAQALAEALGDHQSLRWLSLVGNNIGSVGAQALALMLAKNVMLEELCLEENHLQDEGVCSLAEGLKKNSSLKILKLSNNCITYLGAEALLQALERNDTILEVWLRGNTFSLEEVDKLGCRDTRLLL
Assay [5] relates to HEK293. Nature of the assay: cells. The assay is classed as functional, cell-based. Conditions: Homo sapiens.
For another assay, the target named is Tumor necrosis factor (Homo sapiens, UniProt P01375). Nature of the assay: analog potency on TNFa NF-kB signaling – cell-based, revised, SAR follow-up (AID 2337). It is filed as functional.
Chain of Tumor necrosis factor (P01375 whole entry, the tested form may be a part): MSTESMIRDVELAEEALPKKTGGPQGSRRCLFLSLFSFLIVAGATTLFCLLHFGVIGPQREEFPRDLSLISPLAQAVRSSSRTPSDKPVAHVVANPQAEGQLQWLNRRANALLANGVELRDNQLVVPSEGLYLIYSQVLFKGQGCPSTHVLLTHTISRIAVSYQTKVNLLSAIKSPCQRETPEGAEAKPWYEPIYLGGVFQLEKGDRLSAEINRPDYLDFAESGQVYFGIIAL
The target in assay [6] is T2, Nucleotide-binding oligomerization domain-containing protein 1 (Homo sapiens, UniProt Q9Y239).
T2 sequence (Q9Y239 whole entry): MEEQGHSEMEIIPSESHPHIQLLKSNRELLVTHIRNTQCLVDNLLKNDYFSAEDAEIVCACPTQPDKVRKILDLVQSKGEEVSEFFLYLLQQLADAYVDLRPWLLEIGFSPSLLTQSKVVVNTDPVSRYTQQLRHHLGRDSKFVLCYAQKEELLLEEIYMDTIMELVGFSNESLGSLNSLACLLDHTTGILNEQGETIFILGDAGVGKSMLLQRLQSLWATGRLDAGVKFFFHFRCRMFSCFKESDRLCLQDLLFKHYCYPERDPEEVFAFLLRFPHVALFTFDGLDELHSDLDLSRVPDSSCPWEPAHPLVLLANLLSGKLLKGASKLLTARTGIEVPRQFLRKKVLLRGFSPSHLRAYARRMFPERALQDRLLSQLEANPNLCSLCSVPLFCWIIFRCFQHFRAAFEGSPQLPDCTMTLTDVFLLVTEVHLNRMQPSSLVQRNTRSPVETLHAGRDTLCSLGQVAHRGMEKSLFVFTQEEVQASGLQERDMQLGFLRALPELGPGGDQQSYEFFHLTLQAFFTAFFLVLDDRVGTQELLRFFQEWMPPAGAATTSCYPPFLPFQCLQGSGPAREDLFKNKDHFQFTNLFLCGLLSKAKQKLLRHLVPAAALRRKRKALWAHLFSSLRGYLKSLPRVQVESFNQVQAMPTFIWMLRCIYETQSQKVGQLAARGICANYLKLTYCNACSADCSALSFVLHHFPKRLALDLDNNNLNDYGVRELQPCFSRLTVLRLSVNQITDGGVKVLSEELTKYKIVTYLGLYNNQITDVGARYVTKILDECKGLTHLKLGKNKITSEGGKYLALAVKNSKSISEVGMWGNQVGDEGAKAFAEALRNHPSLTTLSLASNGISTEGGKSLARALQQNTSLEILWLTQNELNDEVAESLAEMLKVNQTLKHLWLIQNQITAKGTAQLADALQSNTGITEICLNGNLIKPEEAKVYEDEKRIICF
The assay is described as follows: blockers of NOD1 pathway activity – revised, SAR follow-up (AID 2333). The assay is classed as functional.

Assay [7] has as its system HEK293. The assay is described as follows: inhibition of NOD1-driven NF-kB reporter – cell-based, luminescence, uHTS, primary screen (AID 1578). The assay is classed as functional. Conditions: Homo sapiens.
Assay [8] deals with HEK293. The assay is described as follows: cells. The settings on record: Homo sapiens. The assay is classed as functional, cell-based. This is another data set of the same source.
Assay [9] concerns the target T3, Short transient receptor potential channel 4 (Mus musculus, UniProt Q9QUQ5).
T3 sequence (Q9QUQ5 whole entry): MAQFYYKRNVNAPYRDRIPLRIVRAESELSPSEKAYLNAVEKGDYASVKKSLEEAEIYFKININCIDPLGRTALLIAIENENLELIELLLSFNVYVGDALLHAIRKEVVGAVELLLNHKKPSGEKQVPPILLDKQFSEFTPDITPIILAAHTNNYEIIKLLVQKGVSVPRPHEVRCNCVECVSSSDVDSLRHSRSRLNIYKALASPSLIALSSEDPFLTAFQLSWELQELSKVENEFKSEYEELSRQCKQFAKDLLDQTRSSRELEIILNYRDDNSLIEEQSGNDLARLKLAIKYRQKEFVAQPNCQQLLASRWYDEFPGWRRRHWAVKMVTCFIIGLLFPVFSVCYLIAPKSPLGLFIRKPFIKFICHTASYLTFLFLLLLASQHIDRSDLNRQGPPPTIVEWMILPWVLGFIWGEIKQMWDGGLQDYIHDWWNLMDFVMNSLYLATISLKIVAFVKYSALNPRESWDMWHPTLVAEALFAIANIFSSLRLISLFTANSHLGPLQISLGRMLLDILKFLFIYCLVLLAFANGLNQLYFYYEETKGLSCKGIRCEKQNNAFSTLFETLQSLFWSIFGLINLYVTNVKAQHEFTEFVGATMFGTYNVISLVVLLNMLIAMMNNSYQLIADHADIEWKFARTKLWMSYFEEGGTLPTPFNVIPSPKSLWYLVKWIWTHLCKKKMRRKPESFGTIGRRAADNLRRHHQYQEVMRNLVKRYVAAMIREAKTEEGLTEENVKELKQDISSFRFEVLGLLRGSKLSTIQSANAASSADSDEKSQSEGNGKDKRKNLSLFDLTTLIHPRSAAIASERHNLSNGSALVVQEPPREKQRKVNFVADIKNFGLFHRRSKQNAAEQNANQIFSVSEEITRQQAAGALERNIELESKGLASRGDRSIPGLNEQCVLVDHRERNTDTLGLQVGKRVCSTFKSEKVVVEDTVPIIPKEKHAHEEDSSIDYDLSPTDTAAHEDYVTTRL
The assay is described as follows: block of DAMGO-driven TRPC4 calcium entry – cell-based, HEK293 TRPC4/mu-opioid, Fluo-4 calcium, dose response (AID 434942).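 Further: potency of inhibitors blocking the TRPC4 calcium response.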 It is filed as functional.

Assay [10] has as its target T4, Eukaryotic translation initiation factor 2-alpha kinase 3 (Homo sapiens, UniProt Q9NZJ5). The assay is described as follows: Counterscreen assay for PERK inhibitors: Dose response cell-based high throughput screening assay to measure inhibition of PERK at 6 hours. [Related pubchem assays: 1522, 1416 ]. It is filed as functional.
For assay [11], the target named is Eukaryotic translation initiation factor 4E (Mus musculus, UniProt P63073). Nature of the assay: blockers of eIF4G binding by eIF4E – biochemical, TR-FRET, dose response (AID 855).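 Further: potency for disrupting eIF4E binding to eIF4GI seen as loss of FRET.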 It is filed as functional. (In general: Time-resolved FRET reads energy transfer from a long-lived donor to a nearby acceptor.)
Chain of Eukaryotic translation initiation factor 4E (P63073 whole entry): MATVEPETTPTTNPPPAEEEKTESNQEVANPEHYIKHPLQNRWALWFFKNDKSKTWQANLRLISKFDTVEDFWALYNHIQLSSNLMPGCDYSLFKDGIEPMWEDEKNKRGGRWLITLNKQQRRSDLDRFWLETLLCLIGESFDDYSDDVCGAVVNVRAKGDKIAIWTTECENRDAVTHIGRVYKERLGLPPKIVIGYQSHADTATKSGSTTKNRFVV
For assay [12], the target named is T4, Eukaryotic translation initiation factor 2-alpha kinase 3. Nature of the assay: Dose response cell-based high-throughput screening assay to measure PERK inhibition. [Related pubchem assays: 1416 ]. The assay is classed as functional.
The target in assay [13] is Cyclin-dependent kinase 5/CDK5 activator 1 (Homo sapiens, UniProt Q00535). Nature of the assay: blockade of human CDK5 activity – biochemical, cherry-picked samples, set 2, dose response (AID 504545).
Chain of Cyclin-dependent kinase 5/CDK5 activator 1 (Q00535 whole entry): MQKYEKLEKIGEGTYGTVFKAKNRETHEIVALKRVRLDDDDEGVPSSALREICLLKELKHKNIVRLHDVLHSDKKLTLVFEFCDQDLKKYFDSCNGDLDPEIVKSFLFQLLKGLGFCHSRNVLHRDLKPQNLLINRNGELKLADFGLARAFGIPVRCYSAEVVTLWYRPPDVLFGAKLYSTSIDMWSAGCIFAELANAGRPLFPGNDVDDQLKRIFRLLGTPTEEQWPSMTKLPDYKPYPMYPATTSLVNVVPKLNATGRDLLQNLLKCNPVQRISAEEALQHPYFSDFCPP
Chain of Cyclin-dependent kinase 5/CDK5 activator 1 (Q15078 whole entry, further chain): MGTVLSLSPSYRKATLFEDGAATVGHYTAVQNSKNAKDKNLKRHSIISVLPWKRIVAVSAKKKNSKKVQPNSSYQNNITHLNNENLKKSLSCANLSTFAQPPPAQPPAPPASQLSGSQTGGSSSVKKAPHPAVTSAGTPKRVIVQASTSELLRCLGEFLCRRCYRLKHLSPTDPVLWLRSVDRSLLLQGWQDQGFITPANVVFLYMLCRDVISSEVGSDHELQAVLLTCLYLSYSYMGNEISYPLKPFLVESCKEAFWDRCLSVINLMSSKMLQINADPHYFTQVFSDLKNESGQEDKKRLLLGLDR
The target of assay [14] is Luciferin 4-monooxygenase (Photinus pyralis, UniProt P08659). Nature of the assay: inhibition of purified Photinus pyralis luciferase – biochemical, luminescence, dose response (AID 1891).
Chain of Luciferin 4-monooxygenase (P08659 whole entry): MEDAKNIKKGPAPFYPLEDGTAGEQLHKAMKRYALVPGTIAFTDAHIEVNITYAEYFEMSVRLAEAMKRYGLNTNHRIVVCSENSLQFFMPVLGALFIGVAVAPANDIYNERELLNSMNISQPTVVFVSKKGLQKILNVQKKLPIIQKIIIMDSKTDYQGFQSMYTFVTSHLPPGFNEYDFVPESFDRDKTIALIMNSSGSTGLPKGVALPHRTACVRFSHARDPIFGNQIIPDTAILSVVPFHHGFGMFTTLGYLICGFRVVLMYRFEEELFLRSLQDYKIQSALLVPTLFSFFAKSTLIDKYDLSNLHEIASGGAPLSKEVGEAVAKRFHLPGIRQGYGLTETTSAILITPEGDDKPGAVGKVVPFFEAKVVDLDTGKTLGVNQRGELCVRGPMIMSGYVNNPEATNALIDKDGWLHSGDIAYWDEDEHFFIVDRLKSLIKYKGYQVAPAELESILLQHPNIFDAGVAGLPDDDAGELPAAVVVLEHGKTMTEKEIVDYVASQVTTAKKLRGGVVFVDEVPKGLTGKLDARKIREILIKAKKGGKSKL
Assay [15] can be described thus: Luminescence Cell-Based Dose Confirmation HTS to Identify Inhibitors of Platelet Dense Granule Release. [Related pubchem assays: 1663 (Primary HTS), 1678 (Summary of Project)]. The assay is classed as functional.
Assay [16] can be described thus: ADP-Glo luciferase signal interference – biochemical, luminescence, cherry-picked samples, set 2, artefact control for CDK5 inhibitor project, dose response (AID 504546). It is filed as functional, cell-based.
For assay [17], the target named is Serine/threonine-protein phosphatase PP1-alpha catalytic subunit (Homo sapiens, UniProt P62136). Nature of the assay: inhibition of protein phosphatase 1 activity – biochemical, fluorescence, dose response (AID 2403).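 Further: phosphatase turnover of OMFP into fluorescent 3-O-methylfluorescein.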
Assay [18] concerns the target Serine/threonine-protein phosphatase (Homo sapiens, UniProt Q9BPW0). Nature of the assay: Counterscreen for inhibitors of PP1: fluorescence-based biochemical high throughput dose response assay to identify inhibitors of Protein Phosphatase 5 (PP5). [Related pubchem assays: 2034 (Summary (PP5 inhibitors)), 1987 (PP5 inhibitors in singlate), 2235 (PP1 inhibitors in singlate)]. On the technique in general: A counterscreen serves to expose hits that act by an unwanted route or on another target.

For assay [19], the target named is Acyl-homoserine lactone acylase PvdQ (Pseudomonas aeruginosa (strain LESB58), UniProt Q9I194). The assay is described as follows: PvdQ acylase enzyme activity blockers – biochemical, fluorescence, plate reader and imaging, cherry-picks, dose response (AID 493231).
Chain of Acyl-homoserine lactone acylase PvdQ (Q9I194 24-193 limits assumed): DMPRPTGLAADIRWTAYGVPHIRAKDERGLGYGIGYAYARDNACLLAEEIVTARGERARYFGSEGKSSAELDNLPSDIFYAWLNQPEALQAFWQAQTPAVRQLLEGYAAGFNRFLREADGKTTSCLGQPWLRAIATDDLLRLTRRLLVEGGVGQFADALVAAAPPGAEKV
Chain of Acyl-homoserine lactone acylase PvdQ (Q9I194 217-762 limits assumed): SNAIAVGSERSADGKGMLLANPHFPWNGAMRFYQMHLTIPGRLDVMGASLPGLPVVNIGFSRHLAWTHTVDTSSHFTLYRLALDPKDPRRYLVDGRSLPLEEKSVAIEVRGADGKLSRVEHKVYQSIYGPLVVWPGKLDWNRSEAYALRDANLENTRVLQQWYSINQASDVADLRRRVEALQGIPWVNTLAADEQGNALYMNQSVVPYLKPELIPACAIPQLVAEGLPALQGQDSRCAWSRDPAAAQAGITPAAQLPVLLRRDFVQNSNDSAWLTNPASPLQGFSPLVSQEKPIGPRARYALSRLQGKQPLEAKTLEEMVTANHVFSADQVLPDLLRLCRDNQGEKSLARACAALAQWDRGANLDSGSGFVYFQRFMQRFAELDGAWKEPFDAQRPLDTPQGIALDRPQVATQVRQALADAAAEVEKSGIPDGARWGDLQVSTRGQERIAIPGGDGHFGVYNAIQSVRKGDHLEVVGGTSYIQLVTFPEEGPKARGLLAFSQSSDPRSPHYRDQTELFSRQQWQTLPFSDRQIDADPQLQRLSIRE

The source made the active and inactive calls. Bounds are passed on as bounds.

T4 sequence (Q9NZJ5 whole entry): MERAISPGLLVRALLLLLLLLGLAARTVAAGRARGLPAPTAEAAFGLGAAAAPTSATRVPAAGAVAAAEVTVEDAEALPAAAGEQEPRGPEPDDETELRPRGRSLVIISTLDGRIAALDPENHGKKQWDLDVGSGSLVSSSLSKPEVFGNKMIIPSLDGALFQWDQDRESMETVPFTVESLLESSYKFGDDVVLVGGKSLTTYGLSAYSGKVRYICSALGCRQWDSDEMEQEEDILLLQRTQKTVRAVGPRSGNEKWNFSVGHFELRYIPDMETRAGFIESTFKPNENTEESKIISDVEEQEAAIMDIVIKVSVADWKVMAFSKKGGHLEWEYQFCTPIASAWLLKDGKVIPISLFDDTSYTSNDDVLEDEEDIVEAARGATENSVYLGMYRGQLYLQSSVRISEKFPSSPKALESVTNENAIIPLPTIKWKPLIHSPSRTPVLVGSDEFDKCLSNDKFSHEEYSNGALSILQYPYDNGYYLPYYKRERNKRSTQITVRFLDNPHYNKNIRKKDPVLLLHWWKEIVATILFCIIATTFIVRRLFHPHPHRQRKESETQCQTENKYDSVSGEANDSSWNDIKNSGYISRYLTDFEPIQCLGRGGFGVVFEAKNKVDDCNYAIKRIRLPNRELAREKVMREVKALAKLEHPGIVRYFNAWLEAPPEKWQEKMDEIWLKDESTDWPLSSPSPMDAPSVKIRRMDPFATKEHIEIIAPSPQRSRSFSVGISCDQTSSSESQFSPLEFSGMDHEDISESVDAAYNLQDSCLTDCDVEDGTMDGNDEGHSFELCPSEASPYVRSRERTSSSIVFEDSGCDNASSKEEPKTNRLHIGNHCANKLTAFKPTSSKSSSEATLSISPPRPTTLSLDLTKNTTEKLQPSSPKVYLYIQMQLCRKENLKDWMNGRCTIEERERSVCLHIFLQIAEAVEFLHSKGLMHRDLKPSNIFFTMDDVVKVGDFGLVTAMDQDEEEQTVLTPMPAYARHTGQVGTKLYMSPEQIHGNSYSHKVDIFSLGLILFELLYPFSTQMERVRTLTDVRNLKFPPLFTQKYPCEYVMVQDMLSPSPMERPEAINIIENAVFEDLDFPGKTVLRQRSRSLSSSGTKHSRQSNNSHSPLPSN
Chain of Serine/threonine-protein phosphatase (Q9BPW0 whole entry): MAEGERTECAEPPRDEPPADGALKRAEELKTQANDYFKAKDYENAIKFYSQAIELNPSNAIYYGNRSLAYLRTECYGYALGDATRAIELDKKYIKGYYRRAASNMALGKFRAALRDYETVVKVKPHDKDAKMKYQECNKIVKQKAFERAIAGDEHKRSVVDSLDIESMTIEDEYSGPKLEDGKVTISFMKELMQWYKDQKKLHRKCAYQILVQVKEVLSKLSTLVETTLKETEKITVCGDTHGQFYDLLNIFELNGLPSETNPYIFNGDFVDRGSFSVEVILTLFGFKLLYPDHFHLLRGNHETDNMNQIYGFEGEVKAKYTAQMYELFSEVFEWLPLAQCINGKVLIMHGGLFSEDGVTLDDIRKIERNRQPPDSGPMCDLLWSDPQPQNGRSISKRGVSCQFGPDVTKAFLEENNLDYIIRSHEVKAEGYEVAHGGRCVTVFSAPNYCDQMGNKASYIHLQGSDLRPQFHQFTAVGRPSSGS

Usually IC50 stands for the midpoint of a concentration-inhibition curve. The term EC50 denotes the concentration at which the effect is half-maximal. In the case of `O=S(=O)(Nc1nc2ccccc2[nH]1)c1ccc(Cl)cc1`, the IC50 (in [1]; with HEK293 [2]; in the assay with HEK293 [3]; in [4]; in the assay on HEK293 [5]; on Tumor necrosis factor) was > 20 µM (inactive) each time. The results for the IC50 (in assay [6]; with HEK293 [8]) were 1.52 µM (active) and > 20 µM (inactive), respectively. In the assay with HEK293 [7], the EC50 was 2.29 µM (active).
As to `Cc1cc(/C=C2/C(=N)N3C(=NC2=O)SN=C3S(C)(=O)=O)c(C)n1-c1ccccc1F`, the results for the EC50 in assay [9], in assay [10] and in [12] were 1.19 µM (active), > 55.7 µM (not active) and > 55.7 µM (not active), respectively. Further, the IC50 in [11] is 50 µM (inactive).
The AC50 is the concentration at which the activity in the assay is half-maximal. For `COc1ccc(C(=O)O/N=C(/C)c2cccs2)cc1`, the AC50 in assay [13] is 15.7 µM (active); in [16], 31.8 µM (active). The values for the EC50 in assay [14] and in assay [15] were 0.517 µM (active) and 1.34 µM (active), respectively.
With `COc1ccc2c(Cl)c(C(=O)N/N=C/c3ccncc3)sc2c1`, the IC50 is 6.48 µM (active) in assay [17] and > 67 µM (not active) in assay [18].
On to `COc1ccc(/C(C#N)=C/c2ccccn2)cc1`, for which the AC50 in assay [19] was 19.9 µM (active).
